In paper PMC9127750, “Structure-based design of CDC42 effector interaction inhibitors for the treatment of cancer” (Cell reports, 2022):
Values joined by “and” are separate entries in the source; they are usually repeats but may differ in a detail not shown here. Equal values may be shown once.

System: WM3248 melanoma cells, 486 antibodies
Experiment: Reverse phase protein arrays (RPPA);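 for RPPA AceCS1.R.V: ratio of treated to vehicle (0 µM) normalized linear protein signal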;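 for RPPA Akt1 pS473.R.V: ratio of treated to vehicle (0 µM) normalized linear protein signal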;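 for RPPA Akt1.R.V: ratio of treated to vehicle (0 µM) normalized linear protein signal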;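 for RPPA Ambra1 pS52.R.C: ratio of treated to vehicle (0 µM) normalized linear protein signal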;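 for RPPA Atg5.R.C: ratio of treated to vehicle (0 µM) normalized linear protein signal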;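 for RPPA Bim.R.V: ratio of treated to vehicle (0 µM) normalized linear protein signal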
Format: cell-based, Human
Conditions: 5 uM
Source text: Pellets were snap frozen in liquid nitrogen and shipped to MD Anderson Cancer Center core RPPA facility for RPPA analysis (Table S5). Three biological replicates for each sample were generated.
Nomenclatures on the RPPA heatmaps: name_of_antibody.species_of_antibody.status_of_antibody. V - antibody validated; C - validation of antibody in progress; Q - antibody nonspecific; E – under evaluation; antibodies raised in M - mouse, G - goat, R - rabbit, or T - rat.

## CN(C)c1cccc(Nc2cc(-c3ccccc3)nc(C3CCNCC3)n2)c1 [ARN22089, N1,N1-dimethyl-N3-(6-phenyl-2-(piperidin-4-yl)pyrimidin-4-yl)benzene-1,3-diamine]
B.1
  RPPA AceCS1.R.V: 1.006
  RPPA Akt1.R.V: 0.910
  RPPA Akt1_pS473.R.V: 0.894
  RPPA Akt2.R.V: 0.975
  RPPA Akt2_pS474.R.C: 1.016
  RPPA Akt_pS473.R.V: 0.899
  RPPA Akt_pT308.R.V: 0.827
  RPPA Ambra1_pS52.R.C: 0.978
  RPPA Annexin.I.M.V: 1.021
  RPPA Atg3.R.V: 0.935
  RPPA Atg4B.R.C: 0.930
  RPPA Atg5.R.C: 0.974
  RPPA Atg7.R.V: 0.761
  RPPA Aurora.A.R.C: 1.245
  RPPA Aurora.ABC_pT288_pT232_pT198.R.C: 0.869
  RPPA Axl.R.V: 0.622
  RPPA B7.H3.R.C: 0.992
  RPPA B.Raf.R.C: 0.902
  RPPA BAP1.M.V: 0.996
  RPPA BCL2A1.R.V: 0.908
  RPPA BMK1.Erk5_pT218_Y220.R.V: 1.119
  RPPA BRCA1.M.C: 0.934
  RPPA BRD4.R.V: 1.027
  RPPA Bad_pS112.R.V: 0.939
  RPPA Bak.R.C: 0.987
  RPPA Bax.R.V: 0.996
  RPPA Bcl.xL.R.V: 1.022
  RPPA Beclin.R.C: 1.111
  RPPA BiP.GRP78.M.C: 0.998
  RPPA Bid.R.C: 0.999
  RPPA Bim.R.V: 0.906
  RPPA X4E.BP1.R.V: 0.997
  RPPA X4E.BP1_pS65.R.V: 1.205
  RPPA X4E.BP1_pT37_T46.R.V: 1.170
  RPPA X14.3.3.zeta.R.V: 1.080
  RPPA X14.3.3βR.V: 1.052
  RPPA X53BP1.R.V: 0.907
  RPPA b.Catenin.R.V: 1.025
  RPPA b.Catenin_pT41_S45.R.V: 0.975
  RPPA c.Abl.R.V: 0.965
  RPPA c.Abl_pY412.R.C: 0.885
  RPPA c.IAP2.R.C: 1.018
Average of 3
  RPPA PREX1.R.V Average: 1.056
  RPPA PYGB.R.V Average: 0.877
  RPPA PYGM.M.C Average: 0.831
  RPPA Puma.R.C Average: 0.937
  RPPA RBM15.R.V Average: 0.979
  RPPA RIP3.R.C Average: 1.059
  RPPA RIP.R.C Average: 0.875
  RPPA RPA32.R.V Average: 0.880
  RPPA RPA32_pS4_S8.R.C Average: 0.828
  RPPA RRM1.R.C Average: 0.995
  RPPA RRM2.R.C Average: 1.008
  RPPA RSK1.R.V Average: 0.889
  RPPA RSK.R.C Average: 1.023
  RPPA Rab25.R.V Average: 1.051
  RPPA Rad17_pS645.R.V Average: 1.079
  RPPA Rad23A.R.C Average: 0.869
  RPPA Rad50.R.V Average: 0.989
  RPPA Rad51.R.C Average: 1.005
  RPPA Raptor.R.V Average: 1.028
  RPPA Rb_pS807_S811.R.V Average: 1.059
  RPPA Rheb.M.C Average: 0.971
  RPPA Rictor.R.C Average: 1.019
  RPPA Rictor_pT1135.R.V Average: 1.106
  RPPA S6_pS235_S236.R.V Average: 1.300
  RPPA S6_pS240_S244.R.V Average: 1.738
  RPPA SCD.M.V Average: 1.005
  RPPA SDHA.R.V Average: 1.077
  RPPA SF2.R.V Average: 1.028
  RPPA SFRP1.R.V Average: 0.962
  RPPA SGK1.R.V Average: 1.098
  RPPA SGK3.R.V Average: 0.993
  RPPA SHP2.R.V Average: 0.993
  RPPA SHP.2_pY542.R.C Average: 0.941
  RPPA SIRPαR.V Average: 0.994
  RPPA SLC1A5.R.C Average: 0.898
  RPPA SOD1.M.V Average: 1.002
  RPPA SOD2.R.V Average: 1.033
  RPPA SOX7.R.V Average: 0.921
  RPPA STING.R.V Average: 1.006
  RPPA Shc_pY317.R.C Average: 0.879
  RPPA Slfn11.G.C Average: 0.785
  RPPA Smac.M.Q Average: 0.922
  RPPA Smad1.R.V Average: 1.113
  RPPA Smad3.R.V Average: 0.963
  RPPA Smad4.R.V Average: 1.032
  RPPA Snail.M.Q Average: 1.012
  RPPA Sox2.R.V Average: 0.986
  RPPA Sox17.R.V Average: 0.955
  RPPA Src_pY416.R.V Average: 0.979
  RPPA Src_pY527.R.V Average: 1.190
  RPPA Stat1_pY701.R.V Average: 0.966
  RPPA Stat3.R.C Average: 1.005
  RPPA Stat3_pY705.R.C Average: 0.914
  RPPA Stat5a.R.V Average: 1.163
  RPPA Stathmin.1.R.V Average: 0.991
  RPPA Syk.M.V Average: 0.987
  RPPA Synaptophysin.R.C Average: 1.017
  RPPA TAZ.R.V Average: 0.956
  RPPA TEAD.R.C Average: 1.012
  RPPA TFAM.R.V Average: 1.014
  RPPA TFRC.R.V Average: 0.971
  RPPA TIGAR.R.V Average: 1.035
  RPPA TRAP1.M.V Average: 0.973
  RPPA TRIM24.R.C Average: 0.998
  RPPA TRIP13.R.V Average: 0.948
  RPPA Tau.M.C Average: 0.996
  RPPA Transglutaminase.M.V Average: 0.913
Average of 3 replicates
  RPPA signal, antibody TSC1.R.C, Average: 1.118
  RPPA signal, antibody TTF1.R.V, Average: 0.922
  RPPA signal, antibody TUFM.R.V, Average: 1.149
  RPPA signal, antibody Tuberin.R.V, Average: 1.289
  RPPA signal, antibody Tuberin_pT1462.R.V, Average: 0.994
  RPPA signal, antibody Twist.M.C, Average: 0.991
  RPPA signal, antibody Tyro3.R.V, Average: 0.915
  RPPA signal, antibody UBAC1.R.V, Average: 0.933
  RPPA signal, antibody UBQLN4.M.C, Average: 1.031
  RPPA signal, antibody UGT1A.M.V, Average: 0.995
  RPPA signal, antibody ULK1_pS757.R.C, Average: 1.103
  RPPA signal, antibody UQCRC2.M.C, Average: 0.845
  RPPA signal, antibody UVRAG.R.C, Average: 1.060
  RPPA signal, antibody VASP.R.V, Average: 1.009
  RPPA signal, antibody VEGFR.2_pY1175.R.C, Average: 0.987
  RPPA signal, antibody VHL.EPPK1.M.C, Average: 0.993
  RPPA signal, antibody VHL.R.C, Average: 0.983
  RPPA signal, antibody Vinculin.M.V, Average: 0.997
  RPPA signal, antibody WIPI1.R.C, Average: 0.904
  RPPA signal, antibody WTAP.R.V, Average: 0.916
  RPPA signal, antibody Wee1.R.C, Average: 1.196
  RPPA signal, antibody Wee1_pS642.R.C, Average: 1.114
  RPPA signal, antibody XBP.1.G.C, Average: 0.890
  RPPA signal, antibody XPA.M.V, Average: 1.012
  RPPA signal, antibody XPF.R.C, Average: 1.010
  RPPA signal, antibody XRCC1.R.C, Average: 0.941
  RPPA signal, antibody YAP.R.C, Average: 1.005
  RPPA signal, antibody YAP_pS127.R.V, Average: 0.945
  RPPA signal, antibody YB1_pS102.R.V, Average: 0.981
  RPPA signal, antibody YES1.R.V, Average: 0.965
  RPPA signal, antibody YTHDF2.R.V, Average: 0.921
  RPPA signal, antibody YTHDF3.R.C, Average: 0.920
  RPPA signal, antibody ZAP.70.R.V, Average: 1.002
  RPPA signal, antibody ZEB1.R.V, Average: 0.953
Individual replicates
  RPPA signal, antibody TSC1.R.C: 1.023 and 1.362
  RPPA signal, antibody TTF1.R.V: 0.931 and 1.030 and 0.806
  RPPA signal, antibody TUFM.R.V: 1.892 and 0.802 and 0.754
  RPPA signal, antibody Tuberin.R.V: 0.956 and 1.663 and 1.249
  RPPA signal, antibody Tuberin_pT1462.R.V: 0.926 and 1.194 and 0.864
  RPPA signal, antibody Twist.M.C: 1.006 and 0.964 and 1.005
  RPPA signal, antibody Tyro3.R.V: 1.127 and 0.928 and 0.691
  RPPA signal, antibody U.Histone.H2B.R.C: 0.941
  RPPA signal, antibody UBAC1.R.V: 0.942 and 1.076 and 0.780
  RPPA signal, antibody UBQLN4.M.C: 0.956 and 1.187
  RPPA signal, antibody UGT1A.M.V: 1.021 and 0.968 and 0.996
  RPPA signal, antibody ULK1_pS757.R.C: 1.126
  RPPA signal, antibody UQCRC2.M.C: 0.997 and 0.500
  RPPA signal, antibody UVRAG.R.C: 0.983 and 1.130
  RPPA signal, antibody VASP.R.V: 0.982 and 1.010
  RPPA signal, antibody VAV1.R.C: 0.910 and 1.057 and 1.165
  RPPA signal, antibody VEGFR.2.R.V: 0.908 and 1.050 and 1.150
  RPPA signal, antibody VEGFR.2_pY1175.R.C: 0.907 and 1.020
  RPPA signal, antibody VHL.EPPK1.M.C: 0.920
  RPPA signal, antibody VHL.R.C: 1.080 and 0.894 and 0.975
